Laboratory results as given in patent publication US20060069132A1, “Azolecarboxamide herbicides” (priority 2004, published 2006).
Read-outs that look alike come from different tables or passages of the source.

Experiments:
[1] = system: cocklebur; test: Test B pre-/postemergence herbicide test; type: in vivo, Xanthium strumarium; conditions: Xanthium strumarium; for pest or weed control at 125 g/ha: 125 g ai/ha; for pest or weed control at 500 g/ha: 500 g ai/ha
Procedure, shortened: (§1)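 Flooded paddy rice and barnyardgrass were treated at the 2-leaf stage; upland plantings received compound either on sown seed or on 1- to 4-leaf seedlings. All were kept 13–15 days in a greenhouse and scored visually, 0–100, relative to untreated plants.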

[2] = system: pigweed; test: Test B pre-/postemergence herbicide test; type: in vivo, Amaranthus retroflexus; conditions: Amaranthus retroflexus, post-emergence, 336 h, postemergence, read-out: Pigweed plant response rating
Procedure, shortened: (§2)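 Visual rating, 0 (no effect) to 100 (complete control), versus untreated controls after 13–15 d in greenhouse. Pre- and postemergence applications (postemergence plants 2–18 cm, 1–4 leaves); flooded paddy arm at 2-leaf stage. Compounds in non-phytotoxic solvent plus surfactant.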

[3] = system: barnyardgrass; test: Test B flooded paddy test; type: in vivo, Echinochloa crus-galli; conditions: Echinochloa crus-galli, 336 h, 1000 g ai/ha, scale 0 to 100 (0 no effect, 100 complete control), read-out: Barnyardgrass plant response rating
Procedure, shortened: (§3)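 After treating 2-leaf paddy plants or 2–18 cm postemergence plants (1 to 4 leaves) with formulated chemical, researchers kept them in a greenhouse for 13–15 days. Effects were judged visually versus controls: 0 indicates none, 100 total control.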

[4] = system: morningglory; test: Test B pre-/postemergence herbicide test; type: in vivo, Ipomoea coccinea; conditions: Ipomoea, 336 h; for pest or weed control at 125 g/ha: 125 g ai/ha; for pest or weed control at 500 g/ha: 500 g ai/ha
Procedure, shortened: as §1

[5] = system: lambsquarters; test: Test B pre-/postemergence herbicide test; type: in vivo, Chenopodium album; conditions: Chenopodium album, 336 h; for pest or weed control at 125 g/ha: 125 g ai/ha
Procedure, shortened: as §2

[6] = system: wheat; test: Test B postemergence herbicide test; type: in vivo, Triticum aestivum; conditions: Triticum aestivum, post-emergence, 336 h, postemergence, read-out: Wheat plant response rating
Procedure, shortened: (§4)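 Treated at 2-leaf (paddy) or 1–4-leaf, 2–18 cm (postemergence); greenhouse 13–15 d; visual score vs control, 0 none to 100 complete control; dash = not tested.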

[7] = system: small flower umbrella sedge; test: Test B flooded paddy test; type: in vivo, Cyperus difformis; conditions: Cyperus difformis, 336 h, 1000 g ai/ha, scale 0 to 100 (0 no effect, 100 complete control), read-out: Sedge, Umbrella plant response rating
Procedure, shortened: as §3

[8] = system: barnyardgrass; test: Test B pre-/postemergence herbicide test; type: in vivo, Echinochloa crus-galli; conditions: Echinochloa crus-galli; for pest or weed control at 125 g/ha: 125 g ai/ha; for pest or weed control at 500 g/ha: 500 g ai/ha
Procedure, shortened: as §1

[9] = system: wild oat; test: Test B postemergence herbicide test; type: in vivo, Avena fatua; conditions: Avena fatua, post-emergence, 336 h, postemergence, read-out: Oat, Wild plant response rating
Procedure, shortened: as §4

[10] = system: velvetleaf; test: Test B pre-/postemergence herbicide test; type: in vivo, Abutilon theophrasti; conditions: Abutilon theophrasti, 336 h; for pest or weed control at 125 g/ha: 125 g ai/ha; for pest or weed control at 500 g/ha: 500 g ai/ha
Procedure, shortened: as §2

[11] = system: giant foxtail; test: Test B pre-/postemergence herbicide test; type: in vivo, Setaria faberi; conditions: Setaria faberi, 336 h; for pest or weed control at 125 g/ha: 125 g ai/ha; for pest or weed control at 500 g/ha: 500 g ai/ha
Procedure, shortened: as §2

[12] = system: Surinam grass; test: Test B pre-/postemergence herbicide test; type: in vivo, Urochloa decumbens; conditions: Urochloa decumbens; for pest or weed control at 125 g/ha: 125 g ai/ha; for pest or weed control at 500 g/ha: 500 g ai/ha
Procedure, shortened: as §2

[13] = system: large crabgrass; test: Test B pre-/postemergence herbicide test; type: in vivo, Digitaria sanguinalis; conditions: Digitaria sanguinalis; for pest or weed control at 125 g/ha: 125 g ai/ha; for pest or weed control at 500 g/ha: 500 g ai/ha
Procedure, shortened: as §2

[14] = system: ducksalad; test: Test B flooded paddy test; type: in vivo, Heteranthera limosa; conditions: Heteranthera limosa, 336 h, 1000 g ai/ha, scale 0 to 100 (0 no effect, 100 complete control), read-out: Ducksalad plant response rating
Procedure, shortened: as §3

[15] = system: rice; test: Test B flooded paddy test; type: in vivo, Oryza sativa; conditions: Oryza sativa, 336 h, 1000 g ai/ha, scale 0 to 100 (0 no effect, 100 complete control), read-out: Rice plant response rating
Procedure, shortened: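 Read-out: visual comparison with controls, scored 0 to 100, where 100 means complete control and 0 no effect. Formulated chemicals were applied postemergence to plants 2–18 cm tall (1- to 4-leaf), or to flooded-paddy plants at the 2-leaf stage, then held 13 to 15 days under glass.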

[16] = post-emergence, postemergence, visual rating, scale 0 (no effect) to 100 (complete control), read-out: Cocklebur plant response rating
[17] = 125 g ai/ha, visual rating, scale 0 (no effect) to 100 (complete control)
[18] = 500 g ai/ha, scale 0 to 100, 0 is no effect, 100 is complete control
[19] = post-emergence, postemergence, visual rating, scale 0 (no effect) to 100 (complete control), read-out: Barnyardgrass plant response rating

SMILES: CCOC(=O)c1ccc(F)c(NC(=O)C2CC(C(C)(C)C)=NN2CC)c1 (centres unmarked) [Compound 267, ethyl 3-[[[3-(1,1-dimethylethyl)-1-ethyl-4,5-dihydro-1H-pyrazol-5-yl]carbonyl]amino]-4-fluorobenzoate]
- pest or weed control at 125 g/ha [1, 16]: 30%
- pest or weed control at 500 g/ha [1, 16]: 90%
- pest or weed control at 125 g/ha ([1]; pre-emergence, 0 = no effect, 100 = complete control, read-out: Cocklebur plant response rating (0 to 100 scale)): 0%
- pest or weed control at 500 g/ha ([1]; pre-emergence, visual rating, 0 = no effect, 100 = complete control, read-out: Plant response rating, Cocklebur): 0%
- pest or weed control at 125 g/ha [2, 17]: 60%
- pest or weed control at 500 g/ha [2, 18]: 90%
- pest or weed control at 1000 g/ha [3]: 60%
- pest or weed control at 125 g/ha ([4]; post-emergence, postemergence, visual rating, scale 0 (no effect) to 100 (complete control), read-out: Morningglory plant response rating): 30%
- pest or weed control at 500 g/ha ([4]; post-emergence, postemergence, scale 0 to 100, 0 is no effect, 100 is complete control, read-out: Morningglory plant response rating): 40%
- pest or weed control at 125 g/ha ([4]; pre-emergence, 0 = no effect, 100 = complete control, read-out: Morningglory plant response rating (0 to 100 scale)): 20%
- pest or weed control at 500 g/ha ([4]; pre-emergence, visual rating, 0 = no effect, 100 = complete control, read-out: Plant response rating, Morningglory): 30%
- pest or weed control at 125 g/ha ([5]; post-emergence, postemergence, visual rating, scale 0 (no effect) to 100 (complete control), read-out: Lambsquarters plant response rating): 30%
- pest or weed control at 500 g/ha ([5]; post-emergence, postemergence, 500 g ai/ha, scale 0 to 100, 0 is no effect, 100 is complete control, read-out: Lambsquarters plant response rating): 50%
- pest or weed control at 125 g/ha ([5]; pre-emergence, 0 = no effect, 100 = complete control, read-out: Lambsquarters plant response rating (0 to 100 scale)): 0%
- plant injury at 125 g/ha [6, 17]: 20%
- plant injury at 500 g/ha [6, 18]: 30%
- pest or weed control at 1000 g/ha [7]: 70%
- pest or weed control at 125 g/ha [8, 19]: 40%
- pest or weed control at 500 g/ha [8, 19]: 90%
- pest or weed control at 125 g/ha ([8]; pre-emergence, 0 = no effect, 100 = complete control, read-out: Barnyardgrass plant response rating (0 to 100 scale)): 20%
- pest or weed control at 500 g/ha ([8]; pre-emergence, visual rating, 0 = no effect, 100 = complete control, read-out: Plant response rating, Barnyardgrass): 70%
- pest or weed control at 125 g/ha [9, 17]: 30%
- pest or weed control at 500 g/ha [9, 18]: 40%
- pest or weed control at 125 g/ha ([10]; post-emergence, postemergence, visual rating, scale 0 (no effect) to 100 (complete control), read-out: Velvetleaf plant response rating): 50%
- pest or weed control at 500 g/ha ([10]; post-emergence, postemergence, scale 0 to 100, 0 is no effect, 100 is complete control, read-out: Velvetleaf plant response rating): 70%
- pest or weed control at 125 g/ha ([10]; pre-emergence, 0 = no effect, 100 = complete control, read-out: Velvetleaf plant response rating (0 to 100 scale)): 20%
- pest or weed control at 500 g/ha ([10]; pre-emergence, visual rating, 0 = no effect, 100 = complete control, read-out: Plant response rating, Velvetleaf): 50%
- pest or weed control at 125 g/ha ([11]; post-emergence, postemergence, visual rating, scale 0 (no effect) to 100 (complete control), read-out: Foxtail, Giant plant response rating): 40%
- pest or weed control at 500 g/ha ([11]; post-emergence, postemergence, scale 0 to 100, 0 is no effect, 100 is complete control, read-out: Foxtail, Giant plant response rating): 50%
- pest or weed control at 125 g/ha ([11]; pre-emergence, 0 = no effect, 100 = complete control, read-out: Foxtail, Giant plant response rating (0 to 100 scale)): 30%
- pest or weed control at 500 g/ha ([11]; pre-emergence, visual rating, 0 = no effect, 100 = complete control, read-out: Plant response rating, Foxtail, Giant): 80%
- pest or weed control at 125 g/ha ([12]; post-emergence, postemergence, visual rating, scale 0 (no effect) to 100 (complete control), read-out: Surinam Grass plant response rating): 30%
- pest or weed control at 500 g/ha ([12]; post-emergence, postemergence, scale 0 to 100, 0 is no effect, 100 is complete control, read-out: Surinam Grass plant response rating): 50%
- pest or weed control at 125 g/ha ([12]; pre-emergence, 0 = no effect, 100 = complete control, read-out: Surinam Grass plant response rating (0 to 100 scale)): 10%
- pest or weed control at 500 g/ha ([12]; pre-emergence, visual rating, 0 = no effect, 100 = complete control, read-out: Plant response rating, Surinam Grass): 50%
- pest or weed control at 125 g/ha ([13]; post-emergence, postemergence, visual rating, scale 0 (no effect) to 100 (complete control), read-out: Crabgrass, Large plant response rating): 20%
- pest or weed control at 500 g/ha ([13]; post-emergence, postemergence, scale 0 to 100, 0 is no effect, 100 is complete control, read-out: Crabgrass, Large plant response rating): 40%
- pest or weed control at 125 g/ha ([13]; pre-emergence, 0 = no effect, 100 = complete control, read-out: Crabgrass, Large plant response rating (0 to 100 scale)): 40%
- pest or weed control at 500 g/ha ([13]; pre-emergence, visual rating, 0 = no effect, 100 = complete control, read-out: Plant response rating, Crabgrass, Large): 100%
- pest or weed control at 1000 g/ha [14]: 0%
- plant injury at 1000 g/ha [15]: 70%
